As a reminder, the melting point is the temperature of the solid-liquid transition.

Take `Cc1cccc(Nc2cc(Nc3ccc(OCC(=O)N(C)C)cc3)ncn2)c1`: the melting point was 135 to 138 °C.

Compound `Cc1ccc2oc(=O)c(NC(=O)Nc3ccc(F)cc3F)c(-c3ccccc3Cl)c2c1` registered a melting point of 214 to 215 °C.

`CCOC(=O)CN(C)c1ccc(N=O)cc1` registered a melting point of 55 to 56 °C.

The compound `CCn1ncc2cc3c(nc21)CCc1ccccc1C3(O)CCCN(C)C` (stereo not drawn) showed a melting point of 100 to 102 °C.

In turn, `Cc1nn(-c2ccccn2)cc1COc1ccc(COc2ncccc2CC#N)cc1` gave a melting point of 138 to 139 °C.

Compound `CCN(CC)CCn1nc2c3c(cccc31)Sc1ccccc1-2` came in with a melting point of 49 to 50.5 °C.

The compound `CCc1cccc2c(C(N)CO)c[nH]c12` (stereo not drawn) yielded a melting point of 84 to 86 °C.

The compound `CC[C@H]1C(=O)C[C@@H]2C[C@H]1OO[C@@]2(/C=C/C(=O)c1ccc(Cl)cc1)CC` had a melting point of 127 °C.

The compound `COC1C=C(C)C(=O)CC(C)(C)C1OC(=O)c1ccc([N+](=O)[O-])cc1[N+](=O)[O-]` (stereo not drawn) came in with a melting point of 148 to 149 °C.

As to `CC1CC(=O)NN=C1c1ccc2c(c1)SCC(=O)N2C` (stereo not drawn), the melting point lay in the range of 193 to 194 °C.

In turn, `Cn1ncnc1COc1nn2c(-c3ccccc3F)nncc2c1Br` yielded a melting point of 215 to 219 °C.

In turn, `COc1ccc([N+](=O)[O-])c(CCc2cc(OC)ccc2[N+](=O)[O-])c1` gave a melting point of 193 to 195 °C.

Compound `Cc1ccc(-c2cccc3cc(Cc4cccc(C(F)(F)F)c4)sc23)cc1C(=O)NCC(N)=O` had a melting point of 143 to 144 °C.

With `CCOC(=O)/C=C1\C[C@@H]2c3cccc4[nH]cc(c34)C[C@H]2N(C)C1`, the melting point lay within 170 to 171 °C.

`CC(=O)C(C(=O)N(CCN(C)C)c1ccccc1)=C(N)c1ccccc1` displayed a melting point of 81 to 83 °C.

Turning to `CS(=O)(=O)N(C(=O)OCc1ccccc1)c1cc(OC[C@@H]2CO2)ccc1OCc1ccccc1`, the melting point lay within 78 to 80 °C.

With `O=C(NCc1ccco1)Nc1cc(N2CC(c3ccccc3)CC2=O)ccn1` (stereo not drawn), the melting point was in the range of 158 to 160 °C.

`COc1c(F)cccc1-c1cnn2ccc(N3CCN(C(=O)OC(C)C)CC3)nc12` showed a melting point of 52 to 53 °C.

`COC(=O)c1ncn2c1CN(C)C(=O)c1sccc1-2` returned a melting point of 244 to 245 °C.

For the compound `CN(C)C(=S)Oc1ccc2ncc([N+](=O)[O-])c(-c3ccccc3)c2c1`, the melting point lay within 205 to 208 °C.

As to `CC(C)c1ccc2nc3c(C(=O)NCCCCc4cccnc4)cccn3c(=O)c2c1`, the melting point was in the range of 129 to 130 °C.

`Oc1cc(-c2ccc(Cl)cc2)[nH]n1` gave a melting point of 240 to 241 °C.

Regarding `COc1ccc(NC(=O)/C=C/c2ccc(N)c(F)c2)cc1N`, the melting point was 170 to 172 °C.

The compound `CCN1CCN(c2c(F)c(N)c3c(=O)c(C(=O)O)cn(C4CC4)c3c2F)CCC1=O` yielded a melting point of 276 to 278 °C.

`CC(=O)c1nc(-c2ccc(O)cc2)n(C)c1C` had a melting point of 198 to 202 °C.

For the compound `CC1(C)OC(=O)C(=CC2CC2)C(=O)O1`, the melting point fell in the range of 91 to 92 °C.

Regarding `CC(C)C[C@H](NC(=O)c1cnccn1)C(=O)O`, the melting point fell in the range of 36 to 38 °C.

`CC(=O)Nc1c(C(=O)c2nccn2C)[nH]c2cc(Cl)ccc12` displayed a melting point of 205 to 207 °C.

For `COc1ccc([C@@H]2Sc3ccccc3N(CCN(C)C)C(=O)[C@@H]2OC(=O)c2cc(Cl)ccc2[N+](=O)[O-])cc1`, the melting point is 159 to 160 °C.

As for `N#Cc1ccc(-c2cnc3c(c2)N(Cc2ccccc2)C(=O)CN3)cn1`, the melting point was more than 200 °C.

In turn, `Cn1c(=O)c2cnc(-c3ccccc3)nc2n(C)c1=O` returned a melting point of 279 to 281 °C.

`COc1cc(OC)c(-c2cccs2)cc1/C=C/C(=O)c1ccc(S(=O)(=O)NCCN2CCOCC2)cc1` displayed a melting point of 171 to 172 °C.

In turn, `O=C(O)Cc1cn(S(=O)(=O)c2c(Cl)nc3sccn23)c2ccccc12` yielded a melting point of 220 to 222 °C.

Regarding `COC(=O)C1(Cc2ccc(Br)cc2)CC(=O)CN1C(=O)Nc1cc(Cl)cc(Cl)c1` (stereo not drawn), the melting point was 194 °C.

Consider `COc1ccc(Cn2cc3nc(Cl)nc(OCc4ccccc4)c3n2)cc1`, for which the melting point was 150 to 153 °C.

`C#Cc1cccc(Nc2ncnc3cnc(NCc4ccc(OC)cc4)cc23)c1` gave a melting point of 200 to 203 °C.

The compound `CC(C)(C)c1ccc2c(Cc3cccc4ccccc34)c3cc(C(C)(C)C)ccc3c(Cc3cccc4ccccc34)c2c1` yielded a melting point of 285 °C.

Regarding `CCNC(=O)c1ccncc1`, the melting point is 93 to 95 °C.

`O=C1c2ccccc2C(=O)N1C[C@@H](O)COc1ccc(Cl)cc1O`: the melting point was 214 to 218 °C.

The compound `O=c1oc(=O)n(Cc2cccs2)c2ccccc12` had a melting point of 137 to 140 °C.

As for `CC(C)(C)c1cc(O)cc(C(C)(C)C)c1Sc1nnc(-c2ccccn2)o1`, the melting point is 128 to 129 °C.

As for `Oc1nc2ccc3c(Br)cccc3c2nc1O`, the melting point is more than 300 °C.

With `CCCCOc1ccc(-c2cnc(Cl)nc2)cn1`, the melting point was 117 °C.

Consider `CC(C)n1nc(-c2c(-c3ccccc3)nc(N)nc2N(C)Cc2ccccc2)ccc1=O`, for which the melting point fell in the range of 167 to 168 °C.

Compound `COCC(COc1noc2ccc(Cl)cc12)NC=O` (stereo not drawn) showed a melting point of 90 to 92 °C.

The compound `COc1nc(C)cnc1NS(=O)(=O)c1ccccc1-c1ccc(CC(C)C)c(N)c1` displayed a melting point of 160 to 162 °C.

For the compound `CCOc1nn(-c2ccc(C(F)(F)F)cn2)cc1CCO`, the melting point was in the range of 75 to 76 °C.

In turn, `CN1CC=C(C(=O)N2c3ccccc3NC(=O)c3ccccc32)CC1` showed a melting point of 233 to 234 °C.

The compound `CCNc1cc(O)c(C)cc1Cl` gave a melting point of 205 °C.

Regarding `CC(C)n1nc(-c2sc(N(C)C)nc2-c2ccccc2)ccc1=O`, the melting point was in the range of 158 to 160 °C.

In turn, `COc1cccc(CN2CCN(C)CC2C2=NCCN2)c1OC` (stereo not drawn) came in with a melting point of 160 to 162 °C.

`O=C(Nc1ccccc1)O[C@@H]1CN=C(c2ccccc2F)O[C@H]1c1ccccc1` (racemic): the melting point stood at 128 °C.

Consider `CCOC(=O)C1(Nc2cc(Cl)cc(Cl)c2)CC(C(=O)O)Nc2cc(Cl)cc(Cl)c21` (stereo not drawn), for which the melting point was 92 to 94 °C.

Compound `Cc1ccc(NC(=O)NCc2ccc3c(c2)CN(C2CCC(=O)N(COC(=O)C4CCN(C(=O)OC(C)(C)C)CC4)C2=O)C3=O)cc1Cl` (stereo not drawn) came in with a melting point of 157 to 159 °C.

`COc1cc(N2CCN(c3c(C)c(C)c4c(c3C)CC(C)(C)O4)CC2)ccc1Cl` showed a melting point of 168 to 171 °C.

`COc1ccc(-c2noc3cc(OC)ccc23)c(C)c1`: the melting point lay in the range of 126 to 128 °C.

Take `O=[N+]([O-])C(=Cc1ccco1)C1=NCCN1CC1CCOC1` (stereo not drawn): the melting point lay in the range of 115 to 117 °C.

In turn, `Cc1ccn2ncc(C(=O)NC3CN4CCC3CC4)c2c1` (stereo not drawn) returned a melting point of 100 to 102 °C.

Turning to `CC(C)(C)c1cc(OCc2ccc(C#N)cc2)cc(C(C)(C)C)c1`, the melting point was in the range of 118 to 121 °C.

The compound `Cc1c(NC(=O)NC(C)(C)C)c(C)c2c(c1C(C)O)OCC2c1ccc(C(C)C)cc1` (stereo not drawn) had a melting point of 212 to 214 °C.

`O=C(Nc1ccc2c(c1)CCN2)C(=O)N1CCC(Cc2ccccc2)CC1` yielded a melting point of 75 to 76 °C.

Consider `CCOCc1nc2c(N)nc3ccccc3c2n1CCCC1(C)OCCO1`, for which the melting point lay in the range of 150 to 152 °C.

In turn, `O=C(Nc1ccc2c(c1)CCC2)c1ccccc1Cl` yielded a melting point of 144 to 145 °C.

`CC(=O)Oc1ccc2c(c1)C(=O)N(C(C)=O)C(C(Cl)(Cl)Cl)O2` (stereo not drawn) showed a melting point of 138 to 140 °C.

`CCCC(CCC)CCCC1COCCN1CCCCCO` (stereo not drawn) returned a melting point of 59 to 60 °C.

In the case of `CC1(C)COC(c2ccc(F)cc2Cl)=N1`, the melting point lay in the range of 138 to 139 °C.

For the compound `CC(C)(C)c1cc(C(=O)c2ccc(Cl)cc2)cc(CN2CCOCC2)c1O`, the melting point fell in the range of 165 to 166 °C.

Turning to `COC(=O)c1c(NCc2ccc(OC)c(Cl)c2)nc(SC)nc1OC`, the melting point was 124 to 126 °C.

With `CC(=O)c1cccc2cc3ccccc3cc12`, the melting point amounted to 106 °C.

In turn, `Cc1cc(-c2nnc3c4ccccc4c(OCc4ncc[nH]4)nn23)no1` returned a melting point of 188 to 189 °C.

As for `NCCNC(=O)c1cc2c(Oc3ccc(Cl)cc3)cncc2s1`, the melting point was 111 to 114 °C.

`Cc1ccc(C(=O)c2ccc(SCCO)cc2)cc1C` displayed a melting point of 92 to 93 °C.

Turning to `COC1=CCc2cccc(NC(C)=O)c2C1`, the melting point lay in the range of 191 to 192 °C.

Take `Cc1ccc(S(=O)(=O)Oc2c(C(=O)c3ccc(S(C)(=O)=O)cc3Cl)cnn2C)cc1`: the melting point is 141 to 145 °C.

`C=CCn1c2c(ccc1=O)C(NCCc1ccccc1)CCC2` (stereo not drawn) registered a melting point of 60 to 62 °C.

The compound `O=C(OCc1ccccc1)c1cc2c3ccccc3n(Cc3ccccc3)c2cn1` came in with a melting point of 169 to 170 °C.

As for `CN1CCC(O)(c2cccc3[nH]ccc23)CC1`, the melting point is 205 to 206 °C.

In turn, `CCCCc1ccc(CCCCS(=O)(=O)Cc2cccc(/C=C/c3cccc(NC(=O)CC(CC)(CC)C(=O)O)c3)n2)cc1` registered a melting point of 155 to 157 °C.

`Cc1onc2c1C(=O)N(C(C)(C)C)C2=O` returned a melting point of 48 to 50 °C.

Compound `CCc1cc(C(=O)c2ccccc2Cl)c(-n2c(CO)nnc2CNC(=O)c2ccc(Cl)c(Cl)c2)s1` returned a melting point of 125 to 128 °C.

On to `CCCCCCCCCCCCCCCCCCOc1ccc(S(=O)(=O)Nc2ccccc2Cl)cc1NC(=O)CC(=O)N1CCc2ccccc21`, for which the melting point lay within 124 to 128 °C.

As to `CCC(=O)NC(C)(C)CSc1cc(C)c(Cl)cc1C`, the melting point was in the range of 78 to 81 °C.

`Cc1cnc(Sc2nc(C)c(CC(=O)O)s2)c(C(=O)O)c1` gave a melting point of 229 to 231 °C.

As to `CCOC(=O)c1cc(-c2nccs2)[nH]c1C(CC1CCOCC1)c1ccc(S(=O)(=O)C2CC2)cc1` (stereo not drawn), the melting point was in the range of 178 to 179 °C.

`O=Cc1ccc2c(c1)ncn2-c1cccc(-c2cccnc2)c1`: the melting point lay in the range of 200 to 202 °C.

`Cc1cc(-n2cnn(Cc3ccc(F)cc3)c2=O)sc1C(=O)NCc1cccnc1` showed a melting point of 180 to 182 °C.

As to `CC(C)c1cccc(C(C)C)c1NS(=O)(=O)CC(=O)N(Cc1ccccc1)C(C)C`, the melting point lay within 168 to 170 °C.

In turn, `CCCCCCOc1ccc(NC(=O)c2cn(-c3ccc(F)cc3)nc2C)cc1C#N` came in with a melting point of 160 to 161 °C.

Values taken from a melting point compilation (Tetko et al.; mined from patent text by program, amines drawn as free bases though some values may be those of a salt).
